Reference: patent US20160257651A1, “NOVEL COMPOUND WITH ANTIBACTERIAL ACTIVITY” (priority 2013, published 2016)
In brackets after ≈: the same amount, converted by molar mass. Where two headings read alike, the source gives them in different places.

How the values were obtained:
[1] = tested on: Staphylococcus aureus MI (VISA); assay: MIC, S. aureus categories (Test Example 3); assay type: cell-based
Description: (§1) The antibacterial activities of the compound J-131CP against Staphylococcus aureus strains belonging to the five categories of Staphylococcus aureus, i.e., MSSA, MRSA, community-acquired-infection type MRSA (CA-MRSA), VISA, and VRSA, were investigated.
(§2) The compound J-131CP and quinolones were prepared in the same manner as that of Test Example 1-1.
(§3) Cell suspensions were prepared in the same manner as that of Test Example 1-1 described in the section of measurement of MIC in Test Example 1-1, except that the strains mentioned in Table 6 were used as Staphylococcus aureus, and MICs of the compound J-131CP and quinolones as the control were determined for the strains in the same manner as that of Test Example 1-1. In Table 6, the amino acid substitution mutations in QRDR of the strains are underlined.

[2] = tested on: Staphylococcus aureus ATCC29213 (MSSA); assay: MIC, S. aureus categories (Test Example 3); assay type: cell-based; conditions: strain ATCC29213, MSSA
Description: as §1, §2, §3

[3] = tested on: Staphylococcus aureus VRS1 (VRSA); assay: MIC, S. aureus categories (Test Example 3); assay type: cell-based
Description: as §1, §2, §3

[4] = tested on: Staphylococcus aureus BR2 (VISA); assay: MIC, S. aureus categories (Test Example 3); assay type: cell-based
Description: as §1, §2, §3

[5] = tested on: Staphylococcus aureus VRS3a (VRSA); assay: MIC, S. aureus categories (Test Example 3); assay type: cell-based
Description: as §1, §2, §3

[6] = tested on: Staphylococcus aureus MW2 (CA-MRSA); assay: MIC, S. aureus categories (Test Example 3); assay type: cell-based; conditions: strain MW2, CA-MRSA
Description: as §1, §2, §3

[7] = tested on: Staphylococcus aureus VRS5 (VRSA); assay: MIC, S. aureus categories (Test Example 3); assay type: cell-based
Description: as §1, §2, §3

[8] = tested on: Staphylococcus aureus USA300FPR (CA-MRSA); assay: MIC, S. aureus categories (Test Example 3); assay type: cell-based
Description: as §1, §2, §3

[9] = tested on: Staphylococcus aureus KSA36 (MRSA); assay: MIC, S. aureus categories (Test Example 3); assay type: cell-based
Description: as §1, §2, §3

[10] = tested on: Staphylococcus aureus NCTC8325 (MSSA); assay: MIC, S. aureus categories (Test Example 3); assay type: cell-based; conditions: strain NCTC8325, MSSA
Description: as §1, §2, §3

S. aureus MR5867 = assay: MIC against stepwise QRDR mutants; assay type: cell-based; conditions: Staphylococcus aureus
Description: (§4) In order to further verify that the action site of the compound J-131CP is gyrA, there were examined antibacterial activities against the MRSA, S. aureus MR5867, and stepwise-mutated strains (one-step mutant strain to three-step mutant strain) of S. aureus MR5867 in which mutation was introduced into QRDR, as well as the MSSA, S. aureus MS5952, and stepwise-mutated strains (one-step mutant strain to three-step mutant strain) of S. aureus MS5952 in which mutation was introduced into QRDR (those strains mentioned above are described in Antimicrob. Agents Chemother., 42(8), pp. 1917-1922, 1998) by the following methods. The strains used for this test example are available from the inventors of the present invention.
as §2
(§5) Then, the cell suspension was diluted 500 times with CAMHB mentioned above.
(§6) CAMHB containing each of the compound J-131CP and quinolones at each concentration was added to each well of a 96-well plate in a volume of 50 μL/well, the aforementioned cell suspension diluted 500 times was added to the well in a volume of 50 μL/well, and stationary culture was carried out overnight at 37° C. in the same manner as that of Test Example 1-1.

[11] = tested on: S. aureus MR5867 two-step mutant; assay: MIC against stepwise QRDR mutants; assay type: cell-based; conditions: Staphylococcus aureus
Description: as §4, §2, §5, §6

S. aureus MS5952 = assay: MIC against stepwise QRDR mutants; assay type: cell-based; conditions: Staphylococcus aureus
Description: as §4, §2, §5, §6

[12] = tested on: S. aureus MR5867 three-step mutant; assay: MIC against stepwise QRDR mutants; assay type: cell-based; conditions: Staphylococcus aureus
Description: as §4, §2, §5, §6

[13] = tested on: S. aureus MS5952 three-step mutant; assay: MIC against stepwise QRDR mutants; assay type: cell-based; conditions: Staphylococcus aureus
Description: as §4, §2, §5, §6

[14] = tested on: S. aureus MS5952 two-step mutant; assay: MIC against stepwise QRDR mutants; assay type: cell-based; conditions: Staphylococcus aureus
Description: as §4, §2, §5, §6

E. faecium NCTC12202 = assay: MIC against Enterococcus bacteria; assay type: cell-based, Enterococcus faecium; conditions: Enterococcus faecium, NCTC 12202 / VRE
Description: (§7) Antibacterial activities of the compound J-131CP against Enterococcus bacteria (Enterococcus faecium and Enterococcus faecalis) were examined by the following methods.
as §2
(§8) Cell suspensions were prepared in the same manner as that of Test Example 1-1 described in the section of measurement of MIC in Test Example 1-1, except that the Enterococcus bacterium strains mentioned in Table 8 were used instead of Staphylococcus aureus, and MICs of the compound J-131CP and quinolones as control were determined for the strains in the same manner as that of Test Example 1-1 described in the section of measurement of MIC in Test Example 1-1. In Table 8, the amino acid substitution mutations in QRDR of the strains are underlined.

E. faecium RPR2 = assay: MIC against Enterococcus bacteria; assay type: cell-based, Enterococcus faecium
Description: as §7, §2, §8

E. faecalis 36-15722 = assay: MIC against Enterococcus bacteria; assay type: cell-based, Enterococcus faecalis; conditions: Enterococcus faecalis, 3615722
Description: as §7, §2, §8

[15] = Staphylococcus aureus, read-out: MIC
[16] = E. faecium NCTC12202, VRE, quinolone-susceptible, read-out: MIC
[17] = E. faecalis 36-15722, quinolone-resistant, ParC 80Ile, GyrA 84Ile, read-out: MIC

Row | Compound | MIC [1] [µg/mL] | MIC ([2]; read-out: MIC) [µg/mL] | MIC [3] [µg/mL] | MIC [4] [µg/mL] | MIC [5] [µg/mL] | MIC [6, 15] [µg/mL] | MIC [7] [µg/mL] | MIC [8] [µg/mL] | MIC [9] [µg/mL] | MIC [10, 15] [µg/mL] | MIC (S. aureus MR5867) [µg/mL] | MIC [11] [µg/mL] | MIC (S. aureus MS5952) [µg/mL] | MIC [12] [µg/mL] | MIC [13] [µg/mL] | MIC [14] [µg/mL] | MIC (E. faecium NCTC12202; [16]) [µg/mL] | MIC (E. faecium RPR2; Enterococcus faecium, RPR2) [µg/mL] | MIC (E. faecalis 36-15722; [17]) [µg/mL] | further results
1 | O=C(O)c1cn(C2CC2)c2cc(N3CCNCC3)c(F)cc2c1=O [CIP, ciprofloxacin] | 16 (≈ 48.3 µM) | 0.25 (≈ 0.754 µM) | 128 (≈ 386 µM) | 4 (≈ 12.1 µM) | 64 (≈ 193 µM) | 0.25 (≈ 0.754 µM) | > 128 | 16 (≈ 48.3 µM) | 128 (≈ 386 µM) | 0.25 (≈ 0.754 µM) | 0.25 (≈ 0.754 µM) | 32 (≈ 96.6 µM) | 0.25 (≈ 0.754 µM) | 128 (≈ 386 µM) | 64 (≈ 193 µM) | 8 (≈ 24.1 µM) | 0.5 (≈ 1.51 µM) | > 128 |  | MIC (E. faecalis 36-15722): 64 µg/mL (≈ 193 µM)
2 | O=c1cc(CO)c2cc(F)c(-c3ccc(O)cc3)cc2n1C1CC1 [J-131CP, 1-cyclopropyl-6-fluoro-4-(hydroxymethyl)-7-(4-hydroxyphenyl)-1,2-dihydroquinolin-2-one] | ≤ 0.06 | 0.25 (≈ 0.768 µM) | ≤ 0.06 | ≤ 0.06 | ≤ 0.06 |  | ≤ 0.06 | ≤ 0.06 | ≤ 0.06 |  | 0.25 (≈ 0.768 µM) | > 0.06 | 0.25 (≈ 0.768 µM) | ≤ 0.06 | 0.125 (≈ 0.384 µM) | 0.125 (≈ 0.384 µM) |  | 4 (≈ 12.3 µM) | 1 (≈ 3.07 µM) | MIC [2]: 0.125 to 0.25 µg/mL (≈ 0.384 to 0.768 µM); MIC ([6]; Staphylococcus aureus, MRSA): 0.125 to 0.25 µg/mL (≈ 0.384 to 0.768 µM); MIC [6]: 0.125 µg/mL (≈ 0.384 µM); MIC ([10]; Staphylococcus aureus): 0.125 to 0.25 µg/mL (≈ 0.384 to 0.768 µM); MIC [10]: 0.125 µg/mL (≈ 0.384 µM); MIC (E. faecium NCTC12202): 8 µg/mL (≈ 24.6 µM)
3 | C[C@H]1COc2c(N3CCN(C)CC3)c(F)cc3c(=O)c(C(=O)O)cn1c23 [LVX, levofloxacin] | 32 (≈ 88.6 µM) |  | 16 (≈ 44.3 µM) | 8 (≈ 22.1 µM) | 16 (≈ 44.3 µM) |  | > 128 | 4 (≈ 11.1 µM) | > 128 | 0.25 (≈ 0.692 µM) | 0.125 (≈ 0.346 µM) | 8 (≈ 22.1 µM) | 0.25 (≈ 0.692 µM) | 16 (≈ 44.3 µM) | 32 (≈ 88.6 µM) | 4 (≈ 11.1 µM) | 1 (≈ 2.77 µM) | > 128 | 36 (≈ 99.6 µM) | MIC [2]: 0.125 µg/mL (≈ 0.346 µM); MIC ([6]; Staphylococcus aureus, MRSA): 0.125 µg/mL (≈ 0.346 µM); MIC (E. faecium RPR2; E. faecium RPR2, quinolone-resistant, ParC 82Ile, GyrA 84Ile 88Lys): >128 µg/mL
4 | CCn1cc(C(=O)O)c(=O)c2cc(F)c(N3CCNCC3)cc21 [NOR, norfloxacin] | 128 (≈ 401 µM) | 1 (≈ 3.13 µM) | > 128 | 64 (≈ 200 µM) | 128 (≈ 401 µM) | 0.5 (≈ 1.57 µM) | > 128 | 32 (≈ 100 µM) | > 128 | 1 (≈ 3.13 µM) | 1 (≈ 3.13 µM) | 64 (≈ 200 µM) | 1 (≈ 3.13 µM) | > 128 | 128 (≈ 401 µM) | 16 (≈ 50.1 µM) | 2 (≈ 6.26 µM) | > 128 | 128 (≈ 401 µM) | 
5 | CC1COc2c(N3CCN(C)CC3)c(F)cc3c(=O)c(C(=O)O)cn1c23 (centres unmarked) [OFX, ofloxacin] | 128 (≈ 354 µM) | 0.25 (≈ 0.692 µM) | 32 (≈ 88.6 µM) | 64 (≈ 177 µM) | 32 (≈ 88.6 µM) | 0.5 (≈ 1.38 µM) | > 128 | 16 (≈ 44.3 µM) | > 128 | 0.25 (≈ 0.692 µM) | 0.25 (≈ 0.692 µM) | 16 (≈ 44.3 µM) | 0.25 (≈ 0.692 µM) | 64 (≈ 177 µM) | 64 (≈ 177 µM) | 8 (≈ 22.1 µM) | 1 (≈ 2.77 µM) | > 128 | 64 (≈ 177 µM) | 
6 | C[C@@H]1CN(c2c(F)c(N)c3c(=O)c(C(=O)O)cn(C4CC4)c3c2F)C[C@H](C)N1 [SPX, sparfloxacin] | 32 (≈ 81.5 µM) | ≤ 0.06 | 8 (≈ 20.4 µM) | 32 (≈ 81.5 µM) | 16 (≈ 40.8 µM) | ≤ 0.06 | 128 (≈ 326 µM) | 8 (≈ 20.4 µM) | 128 (≈ 326 µM) |  | < 0.06 | 8 (≈ 20.4 µM) | < 0.06 | 16 (≈ 40.8 µM) | 128 (≈ 326 µM) | 16 (≈ 40.8 µM) | 0.25 (≈ 0.637 µM) | > 128 | 64 (≈ 163 µM) | MIC ([10]; Staphylococcus aureus): 0.125 µg/mL (≈ 0.319 µM)
7 | NC1CCN(c2nc3c(cc2F)c(=O)c(C(=O)O)cn3-c2ccc(F)cc2F)C1 (centres unmarked) [TSX, tosufloxacin] | 16 (≈ 39.6 µM) | ≤ 0.06 | 4 (≈ 9.89 µM) | 32 (≈ 79.1 µM) | > 128 | ≤ 0.06 | > 128 | 16 (≈ 39.6 µM) | > 128 | ≤ 0.06 | < 0.06 | 8 (≈ 19.8 µM) | 0.25 (≈ 0.618 µM) | > 128 | > 128 | 8 (≈ 19.8 µM) | 0.25 (≈ 0.618 µM) | > 128 | > 128 | 
